Test results as given in patent publication US8343961B2, “Substituted heterocyclic compounds” (ArQule, Inc., priority 2009, dated 2013).

Biological target: T1, Tec kinase (Homo sapiens, UniProt P42680)
T1 sequence (P42680 1-631): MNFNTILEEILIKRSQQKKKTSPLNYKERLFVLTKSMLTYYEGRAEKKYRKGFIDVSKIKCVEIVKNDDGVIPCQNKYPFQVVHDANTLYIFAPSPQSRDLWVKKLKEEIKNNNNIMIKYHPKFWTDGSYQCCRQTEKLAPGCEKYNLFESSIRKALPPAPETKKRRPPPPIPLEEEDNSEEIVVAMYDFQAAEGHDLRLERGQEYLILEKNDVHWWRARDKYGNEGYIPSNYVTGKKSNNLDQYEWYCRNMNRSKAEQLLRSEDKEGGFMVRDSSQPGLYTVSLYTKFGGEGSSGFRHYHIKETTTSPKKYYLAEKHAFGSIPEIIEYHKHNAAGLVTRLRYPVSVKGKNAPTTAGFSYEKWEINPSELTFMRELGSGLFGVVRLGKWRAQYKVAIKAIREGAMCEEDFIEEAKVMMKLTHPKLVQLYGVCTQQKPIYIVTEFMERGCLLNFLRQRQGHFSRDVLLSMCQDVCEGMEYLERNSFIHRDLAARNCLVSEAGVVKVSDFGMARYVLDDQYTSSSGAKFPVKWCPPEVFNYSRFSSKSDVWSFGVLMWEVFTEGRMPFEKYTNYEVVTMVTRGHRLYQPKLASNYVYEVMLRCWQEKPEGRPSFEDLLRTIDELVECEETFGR
Test: Tec Kinase Activity Assay
Assay type: biochemical
Details: read-out: Tec % INH, at 30 uM
Description: The disclosed compounds were assayed for their ability to inhibit the activity of Tec kinase. Nunc Maxisorb plates were coated with streptavidin by overnight incubation with 100 μL per well of 1 μg/mL Streptavidin in DPBS. Prior to the start of the experiment, the plates were washed with TBST (3×200 μL) and blocked for at least 1 hour by adding 150 μL of 5% BSA/TBST. The plates were washed with TBST (3×200 μL/well) and left dry immediately before the capture step.
The test articles and controls (Staurosporine and Sutent) were prepared using the following assay buffer @ 3× desired final concentration (50 mM Tris-HCl, 0.02 mg/mL BSA, 10 mM MgCl2, 0.1 mM Na3VO4, 1 mM EGTA, 75 μM ATP0.01% NP-40, 2 mM DTT in 10% glycerol/water). In a reaction plate were added rapidly 20 μL test article (or control) and 20 μL TEC 0.25 ng/4. The plate was incubated for 30 minutes. To the reaction plate was added 20 μL of Pyk-2.5 ng/μL. The plate was incubated at room temperature for two hours. From the reaction plate, 50 μL was transferred to the streptavidin coated plate. The capture plate was incubated at room temperature for 30 minutes then washed 6× with TBST. To the capture plate was added 100 μL/well of Cell Signaling anti-phospho tyrosine at a dilution of 1:3000 in 2% BSA/TBST. The plate was incubated for one hour at room temperature then washed 6× with TBST. To the capture plate was added 100 μL/well of Alkaline Phosphatase Tagged Goat anti Mouse Antibody at a dilution of 1:4000 in 2% BSA/TBST. The plate was incubated for one hour at room temperature then washed 6× with TBST. The fluorescent readout was initiated by the addition of 100 μL/well of Attophos reagent (6 mg/10 mL). The reading was done on the Perkin Elmer Envision system.

| inhibition at 30 µM | SMILES |
| --- | --- |
| 50 to 79% | Nc1nc(N2CCN(Cc3ccc(F)c(F)c3)c3ccccc3C2)c2cn[nH]c2n1 [Compound 47, 4-[1-(3,4-difluorobenzyl)-1,2,3,5-tetrahydro-4H-1,4-benzodiazepin-4-yl]-1H-pyrazolo[3,4-d]pyrimidin-6-amine] |
| 50 to 79% | COc1ccc(OC)c(CN2CCN(c3nc(N)nc4[nH]ncc34)Cc3ccccc32)c1 [Compound 36, 4-[1-(2,5-dimethoxybenzyl)-1,2,3,5-tetrahydro-4H-1,4-benzodiazepin-4-yl]-1H-pyrazolo[3,4-d]pyrimidin-6-amine] |
| < 50% | COc1cc2c(cc1OC)C(c1cccc(Cl)c1F)N(c1nc(N)nc3[nH]cnc13)CC2 (centres unmarked) [Compound 49, 6-[1-(3-chloro-2-fluorophenyl)-6,7-dimethoxy-3,4-dihydroisoquinolin-2(1H)-yl]-9H-purin-2-amine] |
| 50 to 79% | Nc1nc(N2CCN(Cc3cccc(Cl)c3)c3ccccc3C2)c2cn[nH]c2n1 [Compound 25, 4-[1-(3-chlorobenzyl)-1,2,3,5-tetrahydro-4H-1,4-benzodiazepin-4-yl]-1H-pyrazolo[3,4-d]pyrimidin-6-amine] |
| 50 to 79% | Nc1nc(N2CCN(CCCc3ccccc3)c3ccccc3C2)c2cn[nH]c2n1 [Compound 41, 4-[1-(3-phenylpropyl)-1,2,3,5-tetrahydro-4H-1,4-benzodiazepin-4-yl]-1H-pyrazolo[3,4-d]pyrimidin-6-amine] |
| 50 to 79% | Nc1nc(N2CCN(Cc3ccc(F)cc3)c3ccccc3C2)c2cn[nH]c2n1 [Compound 16, 4-[1-(4-fluorobenzyl)-1,2,3,5-tetrahydro-4H-1,4-benzodiazepin-4-yl]-1H-pyrazolo[3,4-d]pyrimidin-6-amine] |
| > 79% | COc1ccccc1CN1CCN(c2nc(N)nc3[nH]ncc23)Cc2ccccc21 [Compound 10, 4-[1-(2-methoxybenzyl)-1,2,3,5-tetrahydro-4H-1,4-benzodiazepin-4-yl]-1H-pyrazolo[3,4-d]pyrimidin-6-amine] |
| < 50% | Nc1nc(N2CCN(Cc3ccc(F)c(F)c3)c3ccccc3C2)c2nc[nH]c2n1 [Compound 46, 6-[1-(3,4-difluorobenzyl)-1,2,3,5-tetrahydro-4H-1,4-benzodiazepin-4-yl]-9H-purin-2-amine] |
| 50 to 79% | Nc1nc(N2CCN(Cc3ccccc3Cl)c3ccccc3C2)c2cn[nH]c2n1 [Compound 14, 4-[1-(2-chlorobenzyl)-1,2,3,5-tetrahydro-4H-1,4-benzodiazepin-4-yl]-1H-pyrazolo[3,4-d]pyrimidin-6-amine] |
| 50 to 79% | COc1ccc(CN2CCN(c3nc(N)nc4[nH]ncc34)Cc3ccccc32)cc1OC [Compound 28, 4-[1-(3,4-dimethoxybenzyl)-1,2,3,5-tetrahydro-4H-1,4-benzodiazepin-4-yl]-1H-pyrazolo[3,4-d]pyrimidin-6-amine] |
| 50 to 79% | Cc1cccc(CN2CCN(c3nc(N)nc4[nH]ncc34)Cc3ccccc32)c1 [Compound 34, 4-[1-(3-methylbenzyl)-1,2,3,5-tetrahydro-4H-1,4-benzodiazepin-4-yl]-1H-pyrazolo[3,4-d]pyrimidin-6-amine] |
| < 50% | Nc1nc(N2CCN(Cc3ccc(Cl)c(Cl)c3)c3ccccc3C2)c2nc[nH]c2n1 [Compound 42, 6-[1-(3,4-dichlorobenzyl)-1,2,3,5-tetrahydro-4H-1,4-benzodiazepin-4-yl]-9H-purin-2-amine] |
| < 50% | COc1cc2c(cc1OC)C(CCc1ccccc1)N(c1nc(N)nc3[nH]ncc13)CC2 (centres unmarked) [Compound 51, 4-[6,7-dimethoxy-1-(2-phenylethyl)-3,4-dihydroisoquinolin-2(1H)-yl]-1H-pyrazolo[3,4-d]pyrimidin-6-amine] |
| 50 to 79% | COc1cccc(CN2CCN(c3nc(N)nc4[nH]cnc34)Cc3ccccc32)c1 [Compound 2, 6-[1-(3-methoxybenzyl)-1,2,3,5-tetrahydro-4H-1,4-benzodiazepin-4-yl]-9H-purin-2-amine] |
| 50 to 79% | Nc1nc(N2CCN(Cc3ccc(F)cc3)c3ccccc3C2)c2nc[nH]c2n1 [Compound 15, 6-[1-(4-fluorobenzyl)-1,2,3,5-tetrahydro-4H-1,4-benzodiazepin-4-yl]-9H-purin-2-amine] |
| < 50% | CC(C)c1ccc(CN2CCN(c3nc(N)nc4[nH]cnc34)Cc3ccccc32)cc1 [Compound 3, 6-[1-(4-isopropylbenzyl)-1,2,3,5-tetrahydro-4H-1,4-benzodiazepin-4-yl]-9H-purin-2-amine] |
| 50 to 79% | COc1ccccc1CN1CCN(c2nc(N)nc3[nH]cnc23)Cc2ccccc21 [Compound 9, 6-[1-(2-methoxybenzyl)-1,2,3,5-tetrahydro-4H-1,4-benzodiazepin-4-yl]-9H-purin-2-amine] |
| < 50% | Cc1ccc(CCCN2CCN(c3nc(N)nc4[nH]cnc34)Cc3ccccc32)cc1 [Compound 44, 6-{1-[3-(4-methylphenyl)propyl]-1,2,3,5-tetrahydro-4H-1,4-benzodiazepin-4-yl}-9H-purin-2-amine] |
| < 50% | CC(C)(C)c1ccc(CN2CCN(c3nc(N)nc4[nH]cnc34)Cc3ccccc32)cc1 [Compound 29, 6-[1-(4-tert-butylbenzyl)-1,2,3,5-tetrahydro-4H-1,4-benzodiazepin-4-yl]-9H-purin-2-amine] |
| 50 to 79% | Nc1nc(N2CCN(Cc3ccc(Cl)cc3Cl)c3ccccc3C2)c2cn[nH]c2n1 [Compound 32, 4-[1-(2,4-dichlorobenzyl)-1,2,3,5-tetrahydro-4H-1,4-benzodiazepin-4-yl]-1H-pyrazolo[3,4-d]pyrimidin-6-amine] |
| < 50% | Cc1ccc(CN2CCN(c3nc(N)nc4[nH]cnc34)Cc3ccccc32)cc1 [Compound 26, 6-[1-(4-methylbenzyl)-1,2,3,5-tetrahydro-4H-1,4-benzodiazepin-4-yl]-9H-purin-2-amine] |
| 50 to 79% | Cc1ccccc1CN1CCN(c2nc(N)nc3[nH]ncc23)Cc2ccccc21 [Compound 12, 4-[1-(2-methylbenzyl)-1,2,3,5-tetrahydro-4H-1,4-benzodiazepin-4-yl]-1H-pyrazolo[3,4-d]pyrimidin-6-amine] |
| > 79% | Nc1nc(N2CCN(CCCc3ccccc3)c3ccccc3C2)c2nc[nH]c2n1 [Compound 40, 6-[1-(3-phenylpropyl)-1,2,3,5-tetrahydro-4H-1,4-benzodiazepin-4-yl]-9H-purin-2-amine] |
| > 79% | Nc1nc(N2CCN(CCCc3cccc(Cl)c3)c3ccccc3C2)c2cn[nH]c2n1 [Compound 8, 4-{1-[3-(3-chlorophenyl)propyl]-1,2,3,5-tetrahydro-4H-1,4-benzodiazepin-4-yl}-1H-pyrazolo[3,4-d]pyrimidin-6-amine] |
| 50 to 79% | Nc1nc(N2CCN(Cc3cccc(Cl)c3)c3ccccc3C2)c2nc[nH]c2n1 [Compound 24, 6-[1-(3-chlorobenzyl)-1,2,3,5-tetrahydro-4H-1,4-benzodiazepin-4-yl]-9H-purin-2-amine] |
| < 50% | Nc1nc(N2CCN(Cc3ccc(Cl)cc3Cl)c3ccccc3C2)c2nc[nH]c2n1 [Compound 31, 6-[1-(2,4-dichlorobenzyl)-1,2,3,5-tetrahydro-4H-1,4-benzodiazepin-4-yl]-9H-purin-2-amine] |
| < 50% | Nc1nc(N2CCN(Cc3ccccc3Cl)c3ccccc3C2)c2nc[nH]c2n1 [Compound 13, 6-[1-(2-chlorobenzyl)-1,2,3,5-tetrahydro-4H-1,4-benzodiazepin-4-yl]-9H-purin-2-amine] |
| 50 to 79% | Nc1nc(N2CCN(Cc3cccc(C(F)(F)F)c3)c3ccccc3C2)c2cn[nH]c2n1 [Compound 21, 4-{1-[3-(trifluoromethyl)benzyl]-1,2,3,5-tetrahydro-4H-1,4-benzodiazepin-4-yl}-1H-pyrazolo[3,4-d]pyrimidin-6-amine] |
| < 50% | Nc1nc(N2CCN(CCCc3cccc(F)c3)c3ccccc3C2)c2nc[nH]c2n1 [Compound 39, 6-{1-[3-(3-fluorophenyl)propyl]-1,2,3,5-tetrahydro-4H-1,4-benzodiazepin-4-yl}-9H-purin-2-amine] |
